# Measured values as given in ChEMBL document CHEMBL1148763 (J Med Chem, 2007).
# Target: T1, Dihydrofolate reductase (Bacillus anthracis, UniProt Q81R22)
# T1 sequence (Q81R22 whole entry): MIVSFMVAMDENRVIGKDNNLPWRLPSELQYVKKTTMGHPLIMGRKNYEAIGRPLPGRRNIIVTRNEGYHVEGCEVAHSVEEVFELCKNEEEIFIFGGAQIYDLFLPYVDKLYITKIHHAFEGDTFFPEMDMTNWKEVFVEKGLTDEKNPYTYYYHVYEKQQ
# Experiment: Inhibition of Bacillus anthracis DHFR
structure (smiles),measurement,value
CN(c1ccc(C(=O)NC(CCC(=O)O)C(=O)O)cc1)c1cnc2nc(N)nc(N)c2n1 (stereo unspecified),IC50,15 nM
